Consider 15 molecules from patent US20210395313A1, “PEPTIDE PAC1 ANTAGONISTS” (AMGEN INC., priority 2017, published 2021).

One assay addresses T1, human PAC1 receptor (Homo sapiens, UniProt P41586).
T1 construct: SHSY-5Y (human neuroblastoma cell line) and RG-2 (rat glioma cell line) cells endogenously express human and rat PAC1 receptors, respectively; endogenous in cells; host or cells: SHSY-5Y human neuroblastoma cells
T1 sequence (P41586 21-468): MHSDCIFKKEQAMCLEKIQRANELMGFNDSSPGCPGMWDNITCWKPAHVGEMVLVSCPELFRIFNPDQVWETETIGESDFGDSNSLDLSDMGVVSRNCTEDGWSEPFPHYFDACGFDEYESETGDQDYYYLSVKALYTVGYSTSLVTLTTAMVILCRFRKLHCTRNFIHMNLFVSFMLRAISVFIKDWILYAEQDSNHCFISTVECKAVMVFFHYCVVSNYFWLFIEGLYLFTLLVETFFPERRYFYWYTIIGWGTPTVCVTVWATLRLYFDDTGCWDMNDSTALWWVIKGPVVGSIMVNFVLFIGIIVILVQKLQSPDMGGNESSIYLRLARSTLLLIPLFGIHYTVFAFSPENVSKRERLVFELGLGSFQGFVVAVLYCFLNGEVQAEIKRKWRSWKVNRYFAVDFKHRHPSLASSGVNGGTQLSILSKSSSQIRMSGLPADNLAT
As to the kind of experiment: LANCE Ultra cAMP accumulation antagonist assay in SHSY-5Y cells.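 Note: inhibition of cAMP accumulation evoked by PAC1 agonist at its EC80 in SHSY-5Y cells endogenously expressing receptor, 30 min preincubation then 15 min agonist, TR-FRET readout.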 In kind it is cell-based.

The target in a further assay is T2, rat PAC1 receptor (Rattus norvegicus, UniProt P32215).
T2 construct: SHSY-5Y (human neuroblastoma cell line) and RG-2 (rat glioma cell line) cells endogenously express human and rat PAC1 receptors, respectively; endogenous in cells; host or cells: RG-2 rat glioma cells
T2 sequence (P32215 20-523): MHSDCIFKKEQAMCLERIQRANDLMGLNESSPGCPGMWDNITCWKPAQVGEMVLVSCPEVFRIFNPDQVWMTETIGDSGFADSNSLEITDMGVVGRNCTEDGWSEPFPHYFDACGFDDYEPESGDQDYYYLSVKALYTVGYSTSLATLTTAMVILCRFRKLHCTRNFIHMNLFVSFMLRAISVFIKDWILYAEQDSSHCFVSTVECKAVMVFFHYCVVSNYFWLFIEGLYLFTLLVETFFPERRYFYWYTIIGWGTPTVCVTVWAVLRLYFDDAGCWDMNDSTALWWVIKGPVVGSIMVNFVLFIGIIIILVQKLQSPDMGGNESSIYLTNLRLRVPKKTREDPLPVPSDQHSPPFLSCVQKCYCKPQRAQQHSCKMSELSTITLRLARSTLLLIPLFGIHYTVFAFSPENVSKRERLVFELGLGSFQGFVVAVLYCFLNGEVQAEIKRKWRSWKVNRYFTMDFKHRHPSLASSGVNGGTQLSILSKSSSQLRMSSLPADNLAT
The assay is described as follows: LANCE Ultra cAMP accumulation antagonist assay in RG-2 cells.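 Note: RG-2 rat glioma cells endogenously expressing PAC1, test peptide preincubated 30 min, then PAC1 agonist added at its EC80 for 15 min, cAMP accumulation read by LANCE Ultra.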 In kind it is cell-based. In general terms: TR-FRET usually uses a lanthanide donor and a delayed reading to cut background.

Where a SMILES comes first, the peptide text is derived from it. Bridges are numbered along the chain shown (N, C = ends). Where no end group is shown, it is not given here.

“CDATCFFRKVIDDCYYRSWHSNVPGSVFKACMKQLKKRWQAG-NH2 (disulfide 1-5, 14-31) [compound 70]”: the half-inhibitory concentration (IC50) against human PAC1 receptor and at rat PAC1 receptor was 1 to 100 nM each time.
Turning to `CC[C@H](C)[C@H](NC(=O)[C@H](C)NC(=O)[C@H](CCCCN)NC(=O)[C@H](CCCNC(=N)N)NC(=O)[C@H](Cc1ccccc1)NC(=O)[C@H](CCC(N)=O)NC(=O)[C@@H]1CSSC[C@H](N)C(=O)N[C@@H](CC(=O)O)C(=O)N[C@@H](C)C(=O)N[C@@H]([C@@H](C)O)C(=O)N1)C(=O)N[C@@H](CC(=O)O)C(=O)N[C@@H](CC(=O)O)C(=O)N[C@H]1CSSC[C@@H](C(=O)N[C@@H](CCSC)C(=O)N[C@@H](CCCCN)C(=O)N[C@@H](CCC(N)=O)C(=O)N[C@@H](CCCCN)C(=O)N[C@@H](CCCCN)C(=O)N[C@@H](CCCCN)C(=O)N[C@@H](CCC(=O)O)C(=O)N[C@@H](Cc2ccccc2)C(=O)N[C@@H](CCCCN)C(=O)N[C@@H](C)C(=O)NCC(N)=O)NC(=O)[C@H](C)NC(=O)[C@H](CCCCN)NC(=O)[C@H](Cc2ccccc2)NC(=O)[C@H](CO)NC(=O)[C@H](CO)NC(=O)[C@H](Cc2c[nH]cn2)NC(=O)[C@H](Cc2c[nH]c3ccccc23)NC(=O)[C@H](CO)NC(=O)[C@H](CCCNC(=N)N)NC(=O)[C@H](Cc2ccc(O)cc2)NC(=O)[C@H](Cc2ccc(O)cc2)NC1=O` [compound 63] (H-CDATCQFRKAIDDCYYRSWHSSFKACMKQKKKEFKAG-NH2; disulfide 1-5, 14-26), the IC50 against human PAC1 receptor and on rat PAC1 receptor was 0.01 to 1 nM each time.
Turning to “CDATCQFRKAIDDCQKQAHHSNVPGSVFKACMKQKKKEFKAQ (disulfide 1-5, 14-31) [compound 96]”, the 50% inhibitory concentration (IC50) (commonly the concentration that gives 50% inhibition) was 1 to 100 nM at human PAC1 receptor and 0.01 to 1 nM against rat PAC1 receptor.
In the same order, the values of `CC[C@H](C)[C@H](NC(=O)[C@H](C)NC(=O)[C@H](CCCCN)NC(=O)[C@H](CCCNC(=N)N)NC(=O)[C@H](Cc1ccccc1)NC(=O)[C@H](CCC(N)=O)NC(=O)[C@@H]1CSSC[C@H](NC(C)=O)C(=O)N[C@@H](CC(=O)O)C(=O)N[C@@H](C)C(=O)N[C@@H]([C@@H](C)O)C(=O)N1)C(=O)N[C@@H](CC(=O)O)C(=O)N[C@@H](CC(=O)O)C(=O)N[C@H]1CSSC[C@@H](C(=O)N[C@@H](CCSC)C(=O)N[C@@H](CCCCN)C(=O)N[C@@H](CCC(N)=O)C(=O)N[C@@H](CCCCN)C(=O)N[C@@H](CCCCN)C(=O)N[C@@H](CCCCN)C(=O)N[C@@H](CCC(=O)O)C(=O)N[C@@H](Cc2ccccc2)C(=O)N[C@@H](CCCCN)C(=O)N[C@@H](C)C(=O)NCC(N)=O)NC(=O)C(C)(C)NC(=O)[C@H](CCCCN)NC(=O)[C@H](Cc2ccccc2)NC(=O)[C@H](C(C)C)NC(=O)[C@H](CO)NC(=O)CNC(=O)[C@@H]2CCCN2C(=O)[C@H](C(C)C)NC(=O)[C@H](CC(N)=O)NC(=O)[C@H](CO)NC(=O)[C@H](Cc2c[nH]cn2)NC(=O)[C@H](Cc2c[nH]cn2)NC(=O)[C@H](C)NC(=O)[C@H](CCC(N)=O)NC(=O)[C@H](CCCCN)NC(=O)[C@H](CCC(N)=O)NC1=O` [SEQ ID NO 253] are 0.01 to 1 nM and 0.01 to 1 nM.
In the same order, the values of “CDATCQFRKAIDDCQKQAHHSNVPGSVFKACLLQKKKEFKAG-NH2 (disulfide 1-5, 14-31) [compound 100]” are 1 to 100 nM and 1 to 100 nM.
In the same order, the values of “CDATCQFRKAIDDCAHRAWHSNVPGSVFKLCMKQKKKEWKAGH-NH2 (disulfide 1-5, 14-31) [compound 424]” are 0.01 to 1 nM and 0.01 to 1 nM.
On to “CDATCQFRKAIDDCAKASWHSNVPGSVFKSCMKQKKKEWKAGH-NH2 (disulfide 1-5, 14-31) [compound 1]”, for which the IC50 at human PAC1 receptor was 0.01 to 1 nM; against rat PAC1 receptor, < 0.01 nM.
In the case of “CDATCQFRKAIDDCQKQAHHSNVPGSVFKACMKFRRFLWKAG-NH2 (disulfide 1-5, 14-31) [compound 128]”, the IC50 against human PAC1 receptor and at rat PAC1 receptor was 0.01 to 1 nM throughout.
For “CDATCQFRKAIDDCLWYARHSNVPGSVFKACMKQKKKEFKAG-NH2 (disulfide 1-5, 14-31) [compound 120]”, the IC50 at human PAC1 receptor and against rat PAC1 receptor was 0.01 to 1 nM throughout.
As for `CC[C@H](C)[C@H](NC(=O)[C@H](C)NC(=O)[C@H](CCCCN)NC(=O)[C@H](CCCNC(=N)N)NC(=O)[C@H](Cc1ccccc1)NC(=O)[C@H](CCC(N)=O)NC(=O)[C@@H]1CSSC[C@H](N)C(=O)N[C@@H](CC(=O)O)C(=O)N[C@@H](C)C(=O)N[C@@H]([C@@H](C)O)C(=O)N1)C(=O)N[C@@H](CC(=O)O)C(=O)N[C@@H](CC(=O)O)C(=O)N[C@H]1CSSC[C@@H](C(=O)N[C@@H](CCSC)C(=O)N[C@@H](CCCCN)C(=O)N[C@@H](CCC(N)=O)C(=O)N[C@@H](CCCCN)C(=O)N[C@@H](CCCCN)C(=O)N[C@@H](CCCCN)C(=O)N[C@@H](CCC(=O)O)C(=O)N[C@@H](Cc2ccccc2)C(=O)N[C@@H](CCCCN)C(N)=O)NC(=O)[C@H](CCC(=O)O)NC(=O)[C@H](CCCCN)NC(=O)[C@H](Cc2ccccc2)NC(=O)[C@H](CO)NC(=O)[C@H](CC(N)=O)NC(=O)[C@H](CO)NC(=O)[C@H](Cc2c[nH]cn2)NC(=O)[C@H](Cc2c[nH]cn2)NC(=O)[C@H](C)NC(=O)[C@H](CCC(N)=O)NC(=O)[C@H](CCCCN)NC(=O)[C@H](CCC(N)=O)NC1=O` [compound 224] (H-CDATCQFRKAIDDCQKQAHHSNSFKECMKQKKKEFK-NH2; disulfide 1-5, 14-27), the half-maximal inhibitory concentration (IC50) at human PAC1 receptor lay in the range of 0.01 to 1 nM; at rat PAC1 receptor, 1 to 100 nM.
The corresponding values for `CC[C@H](C)[C@H](NC(=O)[C@H](C)NC(=O)[C@H](CCCCN)NC(=O)[C@H](CCCNC(=N)N)NC(=O)[C@H](Cc1ccccc1)NC(=O)[C@H](CCC(N)=O)NC(=O)[C@@H]1CSSC[C@H](N)C(=O)N[C@@H](CC(=O)O)C(=O)N[C@@H](C)C(=O)N[C@@H]([C@@H](C)O)C(=O)N1)C(=O)N[C@@H](CC(=O)O)C(=O)N[C@@H](CC(=O)O)C(=O)N[C@H]1CSSC[C@@H](C(=O)N[C@@H](CCSC)C(=O)N[C@@H](CCCCN)C(=O)N[C@@H](CCC(N)=O)C(=O)N[C@@H](CCCCN)C(=O)N[C@@H](CCCCN)C(=O)N[C@@H](CCCCN)C(=O)N[C@@H](CCC(=O)O)C(=O)N[C@@H](Cc2ccccc2)C(=O)N[C@@H](CCCCN)C(N)=O)NC(=O)[C@H](CCC(=O)O)NC(=O)[C@H](CCCCN)NC(=O)[C@H](Cc2ccccc2)NC(=O)[C@H](C(C)C)NC(=O)[C@H](CO)NC(=O)[C@H](CC(N)=O)NC(=O)CNC(=O)[C@@H]2CCCN2C(=O)[C@H](C(C)C)NC(=O)[C@H](CC(N)=O)NC(=O)[C@H](CO)NC(=O)[C@H](Cc2c[nH]cn2)NC(=O)[C@H](Cc2c[nH]cn2)NC(=O)[C@H](C)NC(=O)[C@H](CCC(N)=O)NC(=O)[C@H](CCCCN)NC(=O)[C@H](CC(=O)O)NC1=O` [compound 295] are 1 to 100 nM and 0.01 to 1 nM.
The corresponding values for “CDATCQFRKAIDDCARQAHHSNVPGSVFKACMKQKKKEWKAGH-NH2 (disulfide 1-5, 14-31) [compound 2]” are 0.01 to 1 nM and 0.01 to 1 nM.
The corresponding values for “CDATCQFRKAIDDCQKQAHHSNVPGSVFKACMKQKKKEFKAR (disulfide 1-5, 14-31) [compound 68]” are 0.01 to 1 nM and 0.01 to 1 nM.
Turning to “CDATCHFRKAIDDCQKQAHHSNVPGSVFKACMKQHKKRWRAG-NH2 (disulfide 1-5, 14-31) [compound 124]”, the IC50 at human PAC1 receptor and against rat PAC1 receptor was 0.01 to 1 nM throughout.
Consider “CDATCQFRKAIDDCQKQAHHSNVPGSVFKACMKQRKKRWLAG-NH2 (disulfide 1-5, 14-31) [compound 126]”, for which the half-inhibitory concentration (IC50) on human PAC1 receptor and against rat PAC1 receptor was 0.01 to 1 nM throughout.
